Measured values as given in patent US20200138907A1, “Composition for Use in the Treatment of an Individual Suffering a Condition Necessitating New Bone Formation” (priority 2016, published 2020).

Assays:
rabbits [1] = assay: bone induction in intramuscularly implanted BCP constructs without BMP-2, biomembrane pocket model; type: in vivo, rabbit; conditions: TNF-α 1, 10, 100 ng, no BMP-2, intramuscular, 12 weeks
Protocol: First, an assessment study was performed to verify the potential for ectopic bone formation in the biomembrane pocket model. […] The bone volume (area%) in the BCP constructs was the primary outcome after 8 (rats) or 12 (rabbits) weeks. Subsequently, the rabbit model (n=11) was used to 1) screen for the potential of inflammatory stimuli to induce bone intramuscularly and to 2) screen for the effects of inflammatory stimuli on BMP-induced bone formation subcutaneously. The bone volume (area%) in the BCP constructs was the primary outcome after 12 weeks.
Fibrin glue (Tissucol 500®, Baxter, Deerfield, Ill., USA) was subsequently used (55 μl volume) to load the inflammatory mediators onto the constructs. […]
After shaving and disinfecting the skin with 10% povidone-iodine, a midline incision was made to expose the paraspinal muscles. […] The incorporation of fluorochromes in the bone was examined by fluorescence microscopy on methyl methacrylate-embedded sections. […]
After retrieval of the constructs, a quarter of each sample was removed for decalcification and paraffin embedding. […] The samples were completely sectioned and scored for the presence of bone. Two mid-sections were pseudo-coloured in Adobe Photoshop CS6 (Adobe Systems, San Jose, USA) to quantify the percentage of bone in the available pore space (bone area %). […]

rabbits [2] = assay: BMP-2 induced bone formation in subcutaneously implanted BCP constructs, biomembrane pocket model; type: in vivo, rabbit
Protocol: For the comparative study (Table 2), inflammatory stimuli were added to the BCP, alone or in combination with BMP-2. Either 1.5 μg of BMP-2 or PBS (15 μl volume) was first applied. Fibrin glue (Tissucol 500®, Baxter, Deerfield, Ill., USA) was subsequently used (55 μl volume) to load the inflammatory mediators onto the constructs. For this purpose, the mediators were resuspended in 27.5 μl of the thrombin component (diluted 1:50 in PBS), then mixed with 27.5 μl of the fibrinogen component (diluted 1:30 in PBS) and immediately pipetted onto the BCP scaffolds. The control samples were treated with fibrin glue alone. The constructs were prepared on the day of surgery and stored in a humidified environment at 37° C. until implantation.
After shaving and disinfecting the skin with 10% povidone-iodine, a midline incision was made to expose the paraspinal muscles. In the rabbits, four intramuscular pockets were created on each side by blunt dissection for implantation of the PMMA discs (FIG. 2B). The same discs were implanted in subcutaneous pockets via the same approach. Pockets were closed with a non-resorbable suture (Prolene®, Ethicon, USA), followed by closure of the skin (Monocryl®, Ethicon). At the second surgery, an incision was made in the membrane surrounding the PMMA disc, the disc was replaced by a BCP construct, and the opening was sutured (Prolene®, Ethicon). […] Fluorochrome labels were injected subcutaneously to determine the onset and location of new bone formation (van Gaalen et al., 2010): calcein green (10 mg/kg s.c. in 0.2 M NaHCO3, Sigma), oxytetracycline (25 mg/kg s.c. in 50/50 PBS/demineralised water, Merck Millipore, Billerica, USA) xylenol orange (30 mg/kg s.c. in 0.12 M NaHCO3, Sigma). The incorporation of fluorochromes in the bone was examined by fluorescence microscopy on methyl methacrylate-embedded sections. The rabbits were killed 12 weeks after the second surgery under general anesthesia, by intravenous Pentobarbital (Euthanimal®, Alfasan Nederland BV, Woerden, The Netherlands). The rats were killed with CO2, 8 weeks after the second surgery.
After retrieval of the constructs, a quarter of each sample was removed for decalcification and paraffin embedding. The remaining material was fixed in 4% paraformaldehyde, dehydrated by an ethanol series and embedded in methyl methacrylate (MMA, Merck Millipore).

TNF-α
concentration dependence of bone induction (rabbits [1]): no concentration dependence
number of constructs with bone formation (rabbits [1]): 2 constructs
bone area % (rabbits [2]; 10 ng TNF-α with 1.5 μg BMP-2, subcutaneous, 12 weeks, p=0.005 vs control): 13.6±9.9 area %
4-week fluorochrome label (calcein) incorporation in bone (rabbits [2]; BCP constructs with 1.5 μg BMP-2 and 10 ng TNF-α vs BMP-2 alone): observed less frequently
8-week fluorochrome label (xylenol orange) incorporation in bone (rabbits [2]; BCP constructs with 1.5 μg BMP-2 and 10 ng TNF-α vs BMP-2 alone, gross examination): more abundant
effect on BMP-2 induced bone formation (in words) (rabbits [2]; all doses, with 1.5 μg BMP-2, subcutaneous, 12 weeks): stimulatory effect
bone formation at a higher concentration of TNF-α (rabbits [2]; higher than 10 ng TNF-α, with 1.5 μg BMP-2, subcutaneous, 12 weeks): reduction of bone formation
